Experimental data as given in patent publication EP0354047A2, “Herbicidal method using atrazine” (MAY & BAKER LIMITED, priority 1988, dated 1990).

Legend:
Format in all cases: in vivo
[1] = test system: Brachiaria plantaginea (BRAPL); assay: Experiment 1: field experiment, post-emergence spray, % control 29 days after application; conditions: Atrazine 1500g/ha
Protocol: (§1) Duplicate 12m² plots were sprayed post-emergence with 250g or 500g/ha Compound 1 (in a composition according to Example 1 as described hereinafter) or 1500g/ha atrazine (in a commercial aqueous suspension concentrate formulation containing 500g/l w/v atrazine or a combination (as a tank mix) of the two herbicides in a volume of 300 litres/ha. The following control figures were recorded on the grass weeds Brachiaria plantaginea (BRAPL), Digitaria horizontalis (DIGHO) and Eleusine indica (ELEIN) 29 days after application.

[2] = test system: Digitaria horizontalis (DIGHO); assay: as above; conditions: Atrazine 1500g/ha
Protocol: as §1

Eleusine indica (ELEIN) = assay: as above; conditions: Atrazine 1500g/ha
Protocol: as §1

Brassica kaber = assay: Experiment 4: glasshouse, pre-emergence, fresh weight after 27 days, % inhibition of growth; conditions: for % inhibition of growth: Compound 99 0 g/ha
Protocol: (§2) Glasshouse experiments showing the biological interaction between atrazine and Compound 99 on weed species when applied pre-emergence. […] After 27 days the fresh weight of vegetation in each pot was determined. […] E = […]00005:character} where E, X and Y are percentage inhibition of growth. In addition the ED90 values (the application rate giving 90% inhibition of growth) were calculated from the results for Compound 99 alone and with increasing rates of atrazine. The ED90 values were then used to plot an isobole for each species according to the method of […] op cit. The results of percentage inhibition of growth, the ED values calculated from them and the calculated expected values are given in Table 8.

Sida spinosa = assay: as above; conditions: for % inhibition of growth: Compound 99 0 g/ha
Protocol: as §2

CCNc1nc(Cl)nc(NC(C)C)n1 [Atrazine, 2-chloro-4-ethylamino-6-isopropylamino-1,3,5-triazine] was tested, and the “% control observed” value [1] was 10%, the “% control observed” value [2] was 0% and the “% control observed” value (Eleusine indica (ELEIN)) was 0%. For the same molecule, the ED₉₀ (Brassica kaber; Atrazine alone) was “ED₉₀(g/ha) 157.7”, the “% inhibition of growth” value (Brassica kaber; Atrazine 16 g/ha) was 0% and the “% inhibition of growth” value (Brassica kaber; Atrazine 31 g/ha) was 0%. For the same molecule, the “% inhibition of growth” value (Brassica kaber; Atrazine 63 g/ha) was 34%, the “% inhibition of growth” value (Brassica kaber; Atrazine 125 g/ha) was 70% and the “% inhibition of growth” value (Brassica kaber; Atrazine 250 g/ha) was 100%. For the same molecule, the “% inhibition of growth” value (Brassica kaber; Atrazine 500 g/ha) was 100%, the ED₉₀ (Sida spinosa; Atrazine alone) was “ED₉₀(g/ha) 478.75” and the “% inhibition of growth” value (Sida spinosa; Atrazine 16 g/ha) was 10%. The “% inhibition of growth” value (Sida spinosa; Atrazine 31 g/ha) was 2%, the “% inhibition of growth” value (Sida spinosa; Atrazine 63 g/ha) was 15% and the “% inhibition of growth” value (Sida spinosa; Atrazine 125 g/ha) was 23%. For the same molecule, the “% inhibition of growth” value (Sida spinosa; Atrazine 250 g/ha) was 37% and the “% inhibition of growth” value (Sida spinosa; Atrazine 500 g/ha) was 95%.
